Assay results as given in paper PMC12293048, “New Benzimidazole 3′-Deoxynucleosides: Synthesis and Antiherpes Virus Properties” (Biomolecules, 2025).
Several values for one entry are separate records, joined by “and”; a condition that tells them apart may be missing. Equal entries are not always repeated. Where two headings read alike, the source gives them in different places.

Legend:
Vero E6 cells = test: Cytotoxicity, trypan blue exclusion; format: cell-based; conditions: for CD50: 50% cytotoxic concentration, Vero E6 cells, 72 h; for MTC (maximal tolerable concentration): highest concentration that does not cause death of Vero E6 cells
HSV-1/L2 = test: CPE inhibition assay, HSV-1 reference strain L2 in Vero E6 cells; format: cell-based, herpes simplex virus 1; conditions: for IC95: Human alphaherpesvirus 1, Vero C1008, CPE inhibited almost completely
Experimental: (§1) Vero 6 cells for determining cytotoxicity and antiviral activity were cultured according to the method described in [29].
Vero E6 cells were then infected with the infection material at an MOI of 0.01 PFU/cell; incubation was performed at 37 °C in an atmosphere of 5% CO2. […] The duration of incubation was 48 h and 72 h for MOI 0.01 PFU/mL, respectively. […] The results of three independent experiments are shown in Table S1 (Supplementary Materials).

HSV-1/L2/R^ACV = test: microbe, parasite or virus in culture; format: cell-based, herpes simplex virus 1; conditions: for IC95: Human alphaherpesvirus 1, Vero C1008, read-out: IC95 HSV-1/L2/R^ACV, CPE inhibited almost completely, Vero E6, MOI 0.01, acyclovir-resistant strain
Experimental: as §1
In 96-well plastic plates with the generated cell monolayer, serial dilutions of the compounds were prepared at […] 1:2 with the maintenance medium (Eagle′s medium and medium 199, mixed in a ratio 1:1). Vero E6 cells were then infected with the infection material at an MOI of 0.01 PFU/cell; incubation was performed at 37 °C in an atmosphere of 5% CO2. Cytotoxicity was determined quantitatively by the trypan blue exclusion method and expressed as CD50: the concentration of the drug at which 50% of cells die after 72 h. […] The duration of incubation was 48 h and 72 h for MOI […], respectively. […] An antiviral activity was assessed by determining ID50 and ID95 (concentrations of compounds that inhibit the development of virus-induced CPE as compared with the control by 50% and almost completely). […] The results of three independent experiments are shown in Table S1 (Supplementary Materials).

HCMV = conditions: cited from earlier work
HSV-1 = conditions: cited from earlier work
[1] = Human alphaherpesvirus 1, Vero C1008, read-out: IC50 HSV-1/L2, CPE inhibition by 50%, Vero E6, MOI 0.01
[2] = read-out: IC50 HSV-1/L2, CPE inhibition by 50%, Vero E6, MOI 0.01
[3] = Human alphaherpesvirus 1, Vero C1008, read-out: IC50 HSV-1/L2/R^ACV, CPE inhibition by 50%, Vero E6, MOI 0.01, acyclovir-resistant TK-negative strain

SMILES	CD50 (Vero E6 cells) [µM]	MTC (maximal tolerable concentration) (Vero E6 cells) [µM]	IC95 (HSV-1/L2; Vero E6, MOI 0.01) [µM]	IC50 (HSV-1/L2; [1]) [µM]	IC50 (HSV-1/L2; [2]) [µM]	IC50 (HSV-1/L2/R^ACV; [3]) [µM]	IC95 (HSV-1/L2/R^ACV) [µM]	IC50 (HCMV) [µM]	IC50 (HSV-1) [µM]	IC50 (HSV-1/L2/R^ACV; Human alphaherpesvirus 1, Vero C1008, virus variant profoundly resistant to acyclovir)
Nc1nc2ccccc2[nH]1 [Compound 6, 2-aminobenzimidazole]	1422.89 ± 18.04	939.43	939	470	470	705				
NC(=O)c1ncn([C@@H]2O[C@H](CO)[C@@H](O)[C@H]2O)n1 [ribavirin, reference compound]		4095.00	2050			512				
COc1cc2nc(N)[nH]c2cc1F [Compound 7, 2-amino-5-fluoro-6-methoxybenzimidazole]	2165.79 ± 33.74	1380.68	690	173	173	173				
COc1c(F)cc2c(ncn2[C@@H]2O[C@H](CO)C[C@H]2O)c1F [Compound 13, 4,6-Difluoro-5-metoxy-1-(β-D-3′-deoxyribofuranosyl)benzimidazole]		1665.22	3330	3000		3000				
Fc1cc(F)c2[nH]cnc2c1 [Compound 3, 4,6-Difluorobenzimidazole]	2489.32 ± 92.46	811.53	1620	812	812	812				
OC[C@@H]1C[C@@H](O)[C@H](n2cnc3c(F)c(F)c(F)cc32)O1 [Compound 12a, 4,5,6-trifluoro-1-(β-D-3′-deoxyribofuranosyl)benzimidazole]	≥ 3999.31	1999.65	1000	250	250	494	2000			
c1ccc2[nH]cnc2c1 [Compound 1, Benzimidazole]	6313.85 ± 167.47	4235.49	4240	1060	1060	1060				
OC[C@H]1O[C@@H](n2cnc3cc(Cl)c(Cl)cc32)[C@H](O)[C@@H]1O [DRB, 5,6-dichloro-1-(β-D-ribofuranosyl)benzimidazole]								42	30	
Fc1cc2nc[nH]c2cc1F [Compound 2, 5,6-Difluorobenzimidazole]	2433.81 ± 37.72	1623.06	1620	203	203	406				
COc1c(F)cc2nc[nH]c2c1F [Compound 5, 4,6-Difluoro-5-methoxybenzimidazole]	2909.48 ± 123.18	1358.40	2720	1020		1360				
Fc1cc2nc[nH]c2c(F)c1F [Compound 4, 4,5,6-Trifluorobenzimidazole]	2179.98 ± 27.03	1453.32	1450	363	363	363				
OC[C@@H]1C[C@@H](O)[C@H](n2cnc3cc(F)c(F)cc32)O1 [Compound 10, 5,6-Difluoro-1-(β-D-3′-deoxyribofuranosyl)benzimidazole]	2901.81 ± 60.28	1970.86	985	246	246	1480	≥ 1970			
OC[C@@H]1C[C@@H](O)[C@H](n2cnc3ccccc32)O1 [Compound 9, 1-(β-D-3′-Deoxyribofuranosyl)benzimidazole]	> 5019.25	2505.13	2510	626	626	1250	5020			
Nc1nc2c(ncn2COCCO)c(=O)[nH]1 [acyclovir, reference compound]										> 100 µg/mL and > 444 µM
OC[C@@H]1C[C@@H](O)[C@H](n2cnc3c(F)cc(F)cc32)O1 [Compound 11a, 4,6-difluoro-1-(β-D-3′-deoxyribofuranosyl)benzimidazole]	> 2007.37	1003.68	1000	251	251	< 2010	2010			
Nc1nc2cc(F)c(F)cc2n1[C@@H]1O[C@H](CO)C[C@H]1O [Compound 16, 2-Amino-5,6-difluoro-1-(β-D-3′-deoxyribofuranosyl)benzimidazole]	3315.58 ± 141.99	1991.35	> 1990	996	996	996	> 1990			
Nc1nc2cc(F)c(F)cc2[nH]1 [Compound 8, 2-Amino-5,6-difluorobenzimidazole]	1659.39 ± 60.16	739.43	739	370	370	370				
